Measured values taken from patent publication US20040147459A1, “Method and composition for maintaining urinary tract health in the face of infections” (priority 2002, published 2004).

Tests used:
E. coli = conditions: cited from earlier work
[1] = system: E. coli in the urinary tract; assay: doctor-run trials of mannose dosages in urinary tract infections; type: in vivo; conditions: 2 g three times a day for acute infections; maintenance 1 g one to two times per day
Excerpt: Because it is difficult for many people to remember a medication that must be taken this often, it is herein disclosed to change this model, as disclosed in the table in FIG. 2. For acute infections, the method is to give a 2-gram (1 teaspoon) dose of mannose three times a day with meals. The maintenance dosage is one-half teaspoon (1 gram) one to two times per day. Children's dosages are half of the adult dosage. For women who experience UTIs after sexual relations, one teaspoon is used an hour prior to intimate relations and an additional one teaspoon immediately following. This regimen provides a quantity of mannose sufficient to remove a majority of E. coli in the urinary tract, while improving the ease of use and compliance.

| SMILES | binding to E. coli (E. coli; fructose contained in cranberry juice) | effectiveness of the dosages in doctor-run trials [1] | effectiveness in binding to E. coli and inhibiting its attachment, relative to fructose (E. coli; compared with fructose) |
| --- | --- | --- | --- |
| O=C(CO)[C@@H](O)[C@H](O)[C@H](O)CO [fructose, reference compound] | can also bind to E. coli |  |  |
| O=C[C@@H](O)[C@@H](O)[C@H](O)[C@H](O)CO [D-mannose] |  | effective | ten times more effectively |
